Experimental data from patent EP2608671B1, “COMPOUNDS FOR TREATMENT OF CANCER” (Gtx, Inc., priority 2010, dated 2012).
Read-outs that look alike come from different tables or passages of the source.

Legend:
B16-F1 = assay: SRB cell growth inhibition (cytotoxicity) assay; assay type: cell-based, mouse
Excerpt: (§1) The only compounds which belong to the invention are the ones falling under the scope of formula (XI).

PC-3 = assay: cells
Excerpt: as §1
Cells were stained with SRB solution.
Cells. […] Cells between the third and fifth passages were used for experiments.
Cell growth inhibition studies. […] Cells were stained with sulphorhodamine B (SRB) solution.

DU 145 = assay: cells; settings: Homo sapiens
LNCaP = assay: cells; settings: Homo sapiens
PPC-1 = assay: cells; settings: Homo sapiens
A375 = assay: SRB cell growth inhibition (cytotoxicity) assay; assay type: cell-based, human
[1] = Mus musculus, B16-F1; read-out: IC50 ± SEM (nM), B16-F1
[2] = Homo sapiens, PC-3, 96 h, read-out: IC50 ± SEM (nM), PC-3
[3] = DU-145, 96 h, read-out: IC50 ± SEM (nM), DU 145
[4] = 96 h, read-out: IC50 ± SEM (nM), LNCaP
[5] = PPC-1, 96 h, read-out: IC50 ± SEM (nM), PPC-1
[6] = Homo sapiens, A-375, 96 h; read-out: IC50 ± SEM (nM), A375
[7] = Homo sapiens, PC-3, read-out: IC50 ±SEM (nM), PC-3
[8] = DU-145, read-out: IC50 ±SEM (nM), DU 145
[9] = read-out: IC50 ±SEM (nM), LNCaP
[10] = PPC-1, read-out: IC50 ±SEM (nM), PPC-1
[11] = Homo sapiens, PC-3, 96 h, read-out: IC50 (nM), PC-3
[12] = DU-145, 96 h, read-out: IC50 ± SEM (nM) Du 145
[13] = Homo sapiens, PC-3, read-out: IC50 (nM), PC-3
[14] = DU-145, read-out: IC50 (nM), DU 145
[15] = PPC-1, read-out: IC50 (nM), PPC-1

Compound | IC50 (PC-3; [2]) | IC50 (DU 145; [3]) | IC50 (LNCaP; [4]) | IC50 (PPC-1; [5]) | other results
COc1cc(C(=O)c2cccc(-c3ccccc3)c2)cc(OC)c1OC [1a, Biphenyl-3-yl(3,4,5-trimethoxyphenyl)methanone] | 81 nM | 178 nM | 234 nM | 85 nM | IC50 (B16-F1; [1]): 500 ± 200 nM; IC50 (A375; [6]): 87 ± 15 nM
COc1cc(C(O)c2csc(-c3ccccc3)n2)cc(OC)c1OC (stereo not shown) [2b, (2-Phenylthiazol-4-yl)(3,4,5-trimethoxyphenyl)methanol] | > 10000 nM | > 10000 nM | > 10000 nM | > 10000 nM | IC50 (B16-F1; [1]): > 30000 nM; IC50 (A375; [6]): > 30000 nM
COc1cc(/C(=N/N)c2csc(-c3ccccc3)n2)cc(OC)c1OC [2d-cis, (Z)-4-(hydrazono(3,4,5-trimethoxyphenyl)methyl)-2-phenylthiazole] | 1120 nM | 1210 nM | 1800 nM | 872 nM | IC50 (B16-F1; [1]): 2000 ± 800 nM; IC50 (A375; [6]): 900 ± 300 nM
COc1cc(/C(=N\N)c2csc(-c3ccccc3)n2)cc(OC)c1OC [2d-trans, (E)-4-(hydrazono(3,4,5-trimethoxyphenyl)methyl)-2-phenylthiazole] | 1040 nM | 1210 nM | 1300 nM | 966 nM | IC50 (B16-F1; [1]): 1800 ± 700 nM; IC50 (A375; [6]): 600 ± 200 nM
COc1cc(NC(=O)c2csc(-c3ccccc3)n2)cc(OC)c1OC [2g, 2-Phenyl-N-(3,4,5-trimethoxyphenyl)thiazole-4-carboxamide] | > 10000 nM | > 10000 nM | – | > 10000 nM | IC50 (B16-F1; [1]): > 30000 nM; IC50 (A375; [6]): > 30000 nM
COc1cc(C(=O)Nc2csc(-c3ccccc3)n2)cc(OC)c1OC [2h, 3,4,5-Trimethoxy-N-(2-phenylthiazol-4-yl)benzamide] | > 10000 nM | > 10000 nM | > 10000 nM | > 10000 nM | IC50 (B16-F1; [1]): > 30000 nM; IC50 (A375; [6]): > 30000 nM
COc1cc(C(=O)c2csc(-c3ccc(CC#N)cc3)n2)cc(OC)c1OC [2n, 2-(4-(4-(3,4,5-Trimethoxybenzoyl)thiazol-2-yl)phenyl)acetonitrile] | – | – | – | – | IC50 (B16-F1; Mus musculus, B16-F1; Table 6; read-out: IC50 ±SEM (nM), B16-F1): 290 nM; IC50 (PC-3; [7]): 131 nM; IC50 (DU 145; [8]): 143 nM; IC50 (LNCaP; [9]): 101 nM; IC50 (PPC-1; [10]): 99 nM; IC50 (A375; Homo sapiens, A-375; Table 6; read-out: IC50 ±SEM (nM), A375): 210 nM
COc1cc(/C=C\c2csc(-c3ccccc3)n2)cc(OC)c1OC [3a, (Z)-2-Phenyl-4-(3,4,5-trimethoxystyryl)thiazole] | > 10000 nM | > 10000 nM | > 10000 nM | > 10000 nM | IC50 (B16-F1; Mus musculus, B16-F1, read-out: IC50 ± SEM (nM), B16-F1): 11000 ± 2800 nM; IC50 (A375; Homo sapiens, A-375, 96 h, read-out: IC50 ± SEM (nM), A375): 46500 ± 23300 nM
COc1cc(C(=O)c2csc(Nc3ccc(Cl)cc3)n2)cc(OC)c1OC [5d, (2-((4-Chlorophenyl)amino)thiazol-4-yl)(3,4,5-trimethoxyphenyl)methanone] | 33 ± 1 nM | 73 ± 1 nM | 45 ± 1 nM | 36 ± 1 nM | IC50 (A375; [6]): 25 ± 7 nM
Clc1nccc2ccc(-c3ccc4[nH]ccc4c3)cc12 [6d, 1-Chloro-7-(1H-indol-5-yl)-isoquinoline] | – | – | – | – | IC50 (PC-3; [7]): 908 nM; IC50 (DU 145; [8]): 1640 nM; IC50 (LNCaP; [9]): 703 nM; IC50 (PPC-1; [10]): 929 nM
O=S(=O)(c1ccccc1)n1ccnc1-c1ccccc1 [10a, 2-phenyl-1-(phenylsulfonyl)-1H-imidazole] | – | – | – | – | IC50 (PC-3; [11]): > 10000 nM
O=S(=O)(c1ccccc1)n1ccnc1-c1ccc(OCc2ccccc2)cc1 [10j, 2-(4-(benzyloxy)phenyl)-1-(phenylsulfonyl)-1H-imidazole] | – | – | – | – | IC50 (PC-3; [11]): > 10000 nM
O=[N+]([O-])c1ccc(-c2nccn2S(=O)(=O)c2ccccc2)cc1 [10x, 2-(4-nitrophenyl)-1-(phenylsulfonyl)-1H-imidazole] | – | – | – | – | IC50 (PC-3; [11]): > 10000 nM
COc1cc(C(=O)n2ccnc2-c2ccccc2)cc(OC)c1OC [12aaa, (2-phenyl-1H-imidazol-1-yl)(3,4,5-trimethoxyphenyl)methanone] | – | – | – | – | IC50 (PC-3; [11]): > 10000 nM
COc1ccc(C(=O)n2ccnc2-c2ccccc2)cc1 [12aba] | – | – | – | – | IC50 (PC-3; read-out: IC50 (nM), PC-3, SRB, 96 h, Table 11): > 10000 nM
COc1ccc(C(=O)c2c[nH]c(-c3ccccc3)n2)cc1OC [12ae, (3,4-dimethoxyphenyl)(2-phenyl-1H-imidazol-4-yl)methanone] | – | – | – | – | IC50 (PC-3; [11]): > 10000 nM

Compound | IC50 (PC-3; [2]) | IC50 (DU 145; [3]) | IC50 (LNCaP; [4]) | IC50 (PPC-1; [5]) | other results
O=C(c1cccc(F)c1)c1c[nH]c(-c2ccccc2)n1 [12ag, (3-fluorophenyl)(2-phenyl-1H-imidazol-4-yl)methanone] | – | – | – | – | IC50 (PC-3; [11]): > 10000 nM
COc1cc(C(=O)c2c[nH]c(-c3ccc(F)cc3)n2)cc(OC)c1OC [12ba, (2-(4-fluorophenyl)-1H-imidazol-4-yl)(3,4,5-trimethoxyphenyl)methanone] | 169 ± 12 nM | – | 98 ± 2 nM | 81 ± 1 nM | IC50 (DU 145; [12]): 132 ± 24 nM
COc1ccc(-c2nc(C(=O)c3cc(OC)c(OC)c(OC)c3)c[nH]2)cc1 [12ca, (2-(4-methoxyphenyl)-1H-imidazol-4-yl)(3,4,5-trimethoxyphenyl)methanone] | 45 ± 1 nM | – | – | 34 ± 0.3 nM | IC50 (DU 145; [12]): 48 ± 0.5 nM
COc1cc(C(=O)c2cn(Cc3ccccc3)c(-c3ccc(C)cc3)n2)cc(OC)c1OC [12daa, (1-Benzyl-2-(p-tolyl)-1H-imidazol-4-yl)(3,4,5-trimethoxyphenyl)methanone] | 466 nM | – | 683 nM | 778 nM | IC50 (DU 145; [12]): 1500 nM
COc1cc(C(=O)c2c[nH]c(-c3ccc(N(C)C)cc3)n2)cc(OC)c1OC [12ga, (2-(4-(dimethylamino)phenyl)-1H-imidazol-4-yl)(3,4,5-trimethoxyphenyl)methanone] | 92 ± 4 nM | – | 58 ± 2 nM | 67 ± 0.7 nM | IC50 (DU 145; [12]): 95 ± 1 nM
CN(C)c1ccc(-c2nc(C(=O)c3ccc(F)cc3)c[nH]2)cc1 [12gb, (2-(4-(dimethylamino)phenyl)-1H-imidazol-4-yl)(4-fluorophenyl)methanone] | 81 ± 3 nM | – | 57 ± 6 nM | 45 ± 0.3 nM | –
COc1ccc(-c2nc(C(=O)c3ccc(F)cc3)c[nH]2)cc1OC [12hb, (2-(3,4-dimethoxyphenyl)-1H-imidazol-4-yl)(4-fluorophenyl)methanone] | 10000 nM | – | 2530 nM | 2170 ± 48 nM | IC50 (DU 145; [12]): 10000 nM; IC50 (A375; Homo sapiens, A-375; A375 melanoma cells, 48 h, SRB; read-out: IC50 ± SEM (nM) A375): 10000 nM
COc1cc(C(=O)c2c[nH]c(-c3ccc(OCc4ccccc4)cc3)n2)cc(OC)c1OC [12ja, (2-(4-(benzyloxy)phenyl)-1H-imidazol-4-yl)(3,4,5-trimethoxyphenyl)methanone] | 10000 nM | – | 2790 nM | 2840 nM | IC50 (DU 145; [12]): 10000 nM
O=C(c1ccc(F)cc1)c1c[nH]c(-c2ccc(OCc3ccccc3)cc2)n1 [12jb, (2-(4-(benzyloxy)phenyl)-1H-imidazol-4-yl)(4-fluorophenyl)methanone] | 79 ± 0.4 nM | – | 44 ± 7 nM | 43 ± 0.2 nM | IC50 (DU 145; [12]): 60 ± 3 nM
COc1cc(C(=O)c2coc(-c3ccccc3)n2)cc(OC)c1OC [36a, (2-Phenyl-oxazol-4-yl)-(3,4,5-trimethoxy-phenyl)-methanone] | 294 nM | 292 nM | 310 nM | 324 nM | IC50 (B16-F1; [1]): 600 ± 200 nM; IC50 (A375; [6]): 300 ± 100 nM
Fc1ccc(-c2ccc3ccnc(-c4ccc(F)cc4)c3c2)cc1 [compound 40, 1,7-Bis-(4-fluoro-phenyl)-isoquinoline] | – | – | – | – | IC50 (PC-3; [13]): 19600 nM; IC50 (DU 145; [14]): 18400 nM; IC50 (LNCaP; read-out: IC50 (nM), LNCaP): 13400 nM; IC50 (PPC-1; [15]): 6200 nM
O=S(=O)(c1ccc(F)cc1)N1CCCc2ccc(-c3ccc4[nH]ccc4c3)cc21 [compound 41, 1-(4-Fluoro-benzenesulfonyl)-7-(1H-indol-5-yl)-1,2,3,4-tetrahydroquinoline] | – | – | – | – | IC50 (PC-3; [13]): 18200 nM; IC50 (DU 145; [14]): 17000 nM; IC50 (LNCaP; read-out: IC50 (nM), LNCaP): 15800 nM; IC50 (PPC-1; [15]): > 20000 nM
O=S(=O)(c1ccc(F)cc1)N1CCc2ccc(Br)cc2C1 [compound 42, 7-Bromo-2-(4-fluoro-benzenesulfonyl)-1,2,3,4-tetrahydro-isoquinoline] | – | – | – | – | IC50 (PC-3; [13]): 23800 nM; IC50 (DU 145; [14]): 24900 nM; IC50 (LNCaP; read-out: IC50 (nM), LNCaP): 43600 nM; IC50 (PPC-1; [15]): > 20000 nM
O=S(=O)(c1ccc(F)cc1)N1CCCc2ccc(Br)cc21 [compound 43, 7-Bromo-1-(4-fluoro-benzenesulfonyl)-1,2,3,4-tetrahydroquinoline] | – | – | – | – | IC50 (PC-3; [13]): 14700 nM; IC50 (DU 145; [14]): 17200 nM; IC50 (LNCaP; read-out: IC50 (nM), LNCaP): 12700 nM; IC50 (PPC-1; [15]): > 20000 nM
c1ccc(Nc2nccn2C(c2ccccc2)(c2ccccc2)c2ccccc2)cc1 [d, N-Phenyl-1-trityl-1H-imidazol-2-amine] | > 1000 nM | > 1000 nM | > 1000 nM | > 1000 nM | –
COc1cc(C(=O)c2cn(C(c3ccccc3)(c3ccccc3)c3ccccc3)c(Nc3ccccc3)n2)cc(OC)c1OC [e, (2-(Phenylamino)-1-trityl-1H-imidazol-4-yl)(3,4,5 trimethoxyphenyl)methanone] | > 1000 nM | > 1000 nM | > 1000 nM | > 1000 nM | –
